ChEMBL document CHEMBL6109087, “Design and synthesis of azole derivatives of echinocystic acid as α-glucosidase inhibitors with hypoglycemic activity” (Eur J Med Chem, 2025)
The source made the active and inactive calls. No cut-off for these calls is given here.

Tests used:
Alpha-glucosidase [1] = target: T1, Alpha-glucosidase (Saccharomyces cerevisiae S288c, UniProt P53341+P38158+P07265); assay: Binding affinity to alpha-glucosidase assessed as inhibition constant; format: protein assay
[2] = Cytotoxicity against human LO2 cells assessed as cell viability measured after 24 hrs by MTT assay; format: toxicity, cell-based, L02
[3] = target: T2, Alpha-glucosidase (Saccharomyces cerevisiae S288c) (UniProt P53341+P38158+P07265); assay: Binding affinity to alpha-glucosidase assessed as quenching by measuring decrease in fluorescent intensity at 0 to 8 uM; format: protein assay; settings: dose 0-8 µM
[4] = target: T2, Alpha-glucosidase (Saccharomyces cerevisiae S288c); assay: Binding affinity to alpha-glucosidase assessed as quenching by measuring decrease in fluorescent intensity by […] fluorescence spectroscopy; format: protein assay
Alpha-glucosidase [5] = target: T1, Alpha-glucosidase; assay: Inhibition of alpha-glucosidase using 4-Nitrophenyl-[…]-D-glucopyranoside (pNPG) as substrate; format: protein assay
Mus musculus [6] = assay: Reduction in blood glucose concentration in male C57BL/6J mouse assessed as peak blood glucose and glucose AUC preadministered for 30 mins via gavage followed by treated 2 g/Kg of sucrose and measured up to 120 mins post sucrose challenge by sucrose loading test; format: functional, organism-based; settings: dose 100.0 mg/kg, time 150.0 min
[7] = Acute toxicity in C57BL/6J mouse assessed as pathological damages in heart at 0.5 g/Kg single dose by HE staining based analysis; format: tissue-based; settings: in vivo, 500 mg/kg
[8] = Acute toxicity in C57BL/6J mouse assessed as pathological damages in lung at 0.5 g/Kg single dose by HE staining based analysis; format: tissue-based; settings: in vivo, 500 mg/kg
Mus musculus [9] = assay: In vivo hypoglycemic effect in STZ-induced diabetic C57BL/6J mouse model assessed as decrease in postprandial blood glucose at 100 mg/kg treated via gavage measured up to 120 mins by Oral glucose tolerance test (OGTT); format: functional, organism-based
[10] = Acute toxicity in C57BL/6J mouse assessed as change in serum ALB level at 0.5 g/Kg single dose; settings: in vivo, 500 mg/kg
[11] = target: T2, Alpha-glucosidase (Saccharomyces cerevisiae S288c); assay: Binding affinity to alpha-glucosidase assessed as fluorescent intensity (lambda-ex/lambda-em 276/332 nm) by 3D fluorescence spectra; format: protein assay
[12] = target: T2, Alpha-glucosidase (Saccharomyces cerevisiae S288c); assay: Mixed-type of inhibition at alpha-glucosidase assessed as decrease in Vmax by Lineweaver-Burk plot analysis; format: protein assay
Mus musculus [13] = assay: Anti-oxidant effect in level in STZ-induced diabetic C57BL/6J mouse model assessed as […] in glutathione (GSH) level in serum at 100 mg/kg treated via gavage; format: functional, organism-based
Mus musculus [14] = assay: Induction of high density lipoproteins (HDL) level in STZ-induced diabetic C57BL/6J mouse model treated via gavage by blood biochemistry index test; format: functional, organism-based
Mus musculus [15] = assay: In vivo hypoglycemic effect in STZ-induced diabetic C57BL/6J mouse model assessed as decrease in fasting blood glucose at 100 mg/kg treated via gavage measured after 7 days by fasting blood glucose test; format: functional, organism-based; settings: time 7.0 day
Mus musculus [16] = assay: Anti-oxidant effect in level in STZ-induced diabetic C57BL/6J mouse model assessed as […] in malondialdehyde (MDA) level in serum at 100 mg/kg treated via gavage; format: functional, organism-based
Mus musculus [17] = assay: Reduction in triglycerides (TG) level in STZ-induced diabetic C57BL/6J mouse model treated via gavage by blood biochemistry index test; format: functional, organism-based; settings: dose 25-100 mg/kg
[18] = Acute toxicity in C57BL/6J mouse assessed as change in serum ALT level at 0.5 g/Kg single dose; settings: in vivo, 500 mg/kg
[19] = Acute toxicity in C57BL/6J mouse assessed as pathological damages in liver at 0.5 g/Kg single dose by HE staining based analysis; format: tissue-based; settings: in vivo, 500 mg/kg
[20] = system: alpha-glucosidase (unknown origin); assay: Selectivity index, ratio of CC50 for Cytotoxicity against human LO2 cells to IC50 for alpha-glucosidase (unknown origin); format: toxicity, cell-based, L02; settings: read-out: Selectivity Index
[21] = Acute toxicity in C57BL/6J mouse assessed as signs of death or toxicity at 0.5 g/Kg single dose monitored over 14 days; settings: in vivo, 500 mg/kg, 336 h, time 14 day
Mus musculus [22] = assay: Anti-oxidant effect in level in STZ-induced diabetic C57BL/6J mouse model assessed as […] in catalase (CAT) level in serum at 100 mg/kg treated via gavage; format: functional, organism-based
[23] = Acute toxicity in C57BL/6J mouse assessed as change in serum BUN level at 0.5 g/Kg single dose; settings: in vivo, 500 mg/kg
[24] = target: T2, Alpha-glucosidase (Saccharomyces cerevisiae S288c); assay: Inhibition of alpha-glucosidase using 4-Nitrophenyl-[…]-D-glucopyranoside (pNPG) as substrate assessed as inhibition rate at 30 uM relative control; format: protein assay
[25] = Toxicity in STZ-induced diabetic C57BL/6J mouse model assessed as body weight at 100 mg/kg treated via gavage measured after 7 days; format: organism-based; settings: in vivo, po, 168 h, time 7 day
[26] = Acute toxicity in C57BL/6J mouse assessed as pathological damages in kidney at 0.5 g/Kg single dose by HE staining based analysis; format: tissue-based; settings: in vivo, 500 mg/kg
[27] = Acute toxicity in C57BL/6J mouse assessed as pathological damages in spleen at 0.5 g/Kg single dose by HE staining based analysis; format: tissue-based; settings: in vivo, 500 mg/kg
[28] = target: T2, Alpha-glucosidase (Saccharomyces cerevisiae S288c); assay: Mixed-type of inhibition at alpha-glucosidase assessed as decrease in Km by Lineweaver-Burk plot analysis; format: protein assay
[29] = target: T2, Alpha-glucosidase (Saccharomyces cerevisiae S288c); assay: Binding affinity to alpha-glucosidase assessed as fluorescent intensity (lambda-ex/lambda-em 285/320 nm) by 3D fluorescence spectra; format: protein assay
[30] = Acute toxicity in C57BL/6J mouse assessed as change in serum AST level at 0.5 g/Kg single dose; settings: in vivo, 500 mg/kg
Mus musculus [31] = assay: Anti-oxidant effect in level in STZ-induced diabetic C57BL/6J mouse model assessed as […] in total superoxide dismutase (T-SOD) level in serum at 100 mg/kg treated via gavage; format: functional, organism-based
Alpha-glucosidase [32] = target: T1, Alpha-glucosidase; assay: Binding affinity to alpha-glucosidase assessed as inhibition constant for protein substrate (alpha-Glu-pNPG) complex; format: protein assay
[33] = Acute toxicity in C57BL/6J mouse assessed as pathological damages in brain at 0.5 g/Kg single dose by HE staining based analysis; format: tissue-based; settings: in vivo, 500 mg/kg
Mus musculus [34] = assay: Reduction in total cholesterol (CHO) level in STZ-induced diabetic C57BL/6J mouse model treated via gavage by blood biochemistry index test; format: functional, organism-based
Mus musculus [35] = assay: Reduction in low density lipoproteins (LDL) level in STZ-induced diabetic C57BL/6J mouse model treated via gavage by blood biochemistry index test; format: functional, organism-based

CC1(C)CC[C@]2(C(=O)NCc3cn(-c4ccc(Cl)c(Cl)c4)nn3)[C@H](O)C[C@]3(C)C(=CC[C@@H]4[C@@]5(C)CC[C@H](O)C(C)(C)[C@@H]5CC[C@]43C)[C@@H]2C1
Ki (Alpha-glucosidase [1]): 15.31 µM | CC50 at 24 h [2]: 287 µM | Activity [3]: Active | Activity [4]: Active | IC50 (Alpha-glucosidase [5]): 2.72 µM | Activity (Mus musculus [6]): Dose-dependent-effect; Compound Showed Comparable Effect To Acarbose | Activity [7]: Non-toxic | Activity [8]: Non-toxic | Activity (Mus musculus [9]): Active; Evidenced By Compound Showed Lower Auc Compared With Model Group | Activity [10]: Non-toxic | Activity [11]: Active | inhibition [12]: Active | Activity (Mus musculus [13]): Active | Activity (Mus musculus [14]): Dose-dependent-effect | Activity (Mus musculus [15]): Active | Activity (Mus musculus [16]): Active | Activity (Mus musculus [17]): Dose-dependent-effect | Activity [18]: Non-toxic | Activity [19]: Non-toxic | selectivity ratio [20]: 105 | Activity [21]: Non-toxic | Activity (Mus musculus [22]): Active | Activity [23]: Non-toxic | inhibition [24]: 88.1% | Activity [25]: Non-toxic | Activity [26]: Non-toxic | Activity [27]: Non-toxic | inhibition [28]: Active | Activity [29]: Active | Activity [30]: Non-toxic | Activity (Mus musculus [31]): Active | Ki (Alpha-glucosidase [32]): 10.23 µM | Activity [33]: Non-toxic | Activity (Mus musculus [34]): Dose-dependent-effect | Activity (Mus musculus [35]): Dose-dependent-effect
